Measurements: ChEMBL document CHEMBL3044736, “Synthesis, characterization, solvatochromic properties, and antimicrobial evaluation of 5-acetyl-2-thioxo-dihydro-pyrimidine-4,6-dione-based chalcones” (2013)
≈ marks a conversion by molar mass, not a printed value.

Columns and labels:
Type in all cases: functional
Pseudomonas aeruginosa [1] = test: Antimicrobial activity against Pseudomonas aeruginosa MTCC 1688 assessed as diameter of growth inhibition zone at 25 ug/ml after 18-24 hr by agar cup diffusion method; settings: read-out: DIZ
Trichophyton rubrum [2] = test: Antimicrobial activity against Trichophyton rubrum MTCC 296 assessed as diameter of growth inhibition zone at 100 ug/ml after 48-96 hr by agar cup diffusion method; settings: read-out: DIZ
Candida albicans [3] = test: Antimicrobial activity against Candida albicans MTCC 227 assessed as diameter of growth inhibition zone at 100 ug/ml after 48-96 hr by agar cup diffusion method; settings: read-out: DIZ
Penicillium [4] = test: Antimicrobial activity against Penicillium wild strain assessed as diameter of growth inhibition zone at 50 ug/ml after 48-96 hr by agar cup diffusion method; settings: read-out: DIZ
Pseudomonas aeruginosa [5] = test: Antimicrobial activity against Pseudomonas aeruginosa MTCC 1688 assessed as diameter of growth inhibition zone at 100 ug/ml after 18-24 hr by agar cup diffusion method; settings: read-out: DIZ
Klebsiella pneumoniae [6] = test: Antimicrobial activity against Klebsiella pneumoniae MTCC 109 assessed as diameter of growth inhibition zone at 100 ug/ml after 18-24 hr by agar cup diffusion method; settings: read-out: DIZ
Aspergillus clavatus [7] = test: Antimicrobial activity against Aspergillus clavatus MTCC 1323 assessed as diameter of growth inhibition zone at 50 ug/ml after 48-96 hr by agar cup diffusion method; settings: read-out: DIZ
Staphylococcus aureus [8] = test: Antimicrobial activity against Staphylococcus aureus MTCC 96 by agar cup diffusion method
Candida albicans [9] = test: Antimicrobial activity against Candida albicans MTCC 227 assessed as diameter of growth inhibition zone at 25 ug/ml after 48-96 hr by agar cup diffusion method; settings: read-out: DIZ
Trichophyton rubrum [10] = test: Antimicrobial activity against Trichophyton rubrum MTCC 296 assessed as diameter of growth inhibition zone at 50 ug/ml after 48-96 hr by agar cup diffusion method; settings: read-out: DIZ
Aspergillus clavatus [11] = test: Antimicrobial activity against Aspergillus clavatus MTCC 1323 assessed as diameter of growth inhibition zone at 25 ug/ml after 48-96 hr by agar cup diffusion method; settings: read-out: DIZ
Pseudomonas aeruginosa [12] = test: Antimicrobial activity against Pseudomonas aeruginosa MTCC 1688 assessed as diameter of growth inhibition zone at 50 ug/ml after 18-24 hr by agar cup diffusion method; settings: read-out: DIZ
Trichophyton rubrum [13] = test: Antimicrobial activity against Trichophyton rubrum MTCC 296 assessed as diameter of growth inhibition zone at 250 ug/ml after 48-96 hr by agar cup diffusion method; settings: read-out: DIZ
Pseudomonas aeruginosa [14] = test: Antimicrobial activity against Pseudomonas aeruginosa MTCC 1688 assessed as diameter of growth inhibition zone at 250 ug/ml after 18-24 hr by agar cup diffusion method; settings: read-out: DIZ
Klebsiella pneumoniae [15] = test: Antimicrobial activity against Klebsiella pneumoniae MTCC 109 assessed as diameter of growth inhibition zone at 25 ug/ml after 18-24 hr by agar cup diffusion method; settings: read-out: DIZ
Pseudomonas aeruginosa [16] = test: Antimicrobial activity against Pseudomonas aeruginosa MTCC 1688 by agar cup diffusion method
Escherichia coli [17] = test: Antimicrobial activity against Escherichia coli MTCC 443 assessed as diameter of growth inhibition zone at 50 ug/ml after 18-24 hr by agar cup diffusion method; settings: read-out: DIZ
Staphylococcus aureus [18] = test: Antimicrobial activity against Staphylococcus aureus MTCC 96 assessed as diameter of growth inhibition zone at 50 ug/ml after 18-24 hr by agar cup diffusion method; settings: read-out: DIZ
Staphylococcus aureus [19] = test: Antimicrobial activity against Staphylococcus aureus MTCC 96 assessed as diameter of growth inhibition zone at 25 ug/ml after 18-24 hr by agar cup diffusion method; settings: read-out: DIZ
Streptococcus pyogenes [20] = test: Antimicrobial activity against Streptococcus pyogenes MTCC 442 assessed as diameter of growth inhibition zone at 25 ug/ml after 18-24 hr by agar cup diffusion method; settings: read-out: DIZ
Candida albicans [21] = test: Antimicrobial activity against Candida albicans MTCC 227 assessed as diameter of growth inhibition zone at 50 ug/ml after 48-96 hr by agar cup diffusion method; settings: read-out: DIZ
Aspergillus clavatus [22] = test: Antimicrobial activity against Aspergillus clavatus MTCC 1323 assessed as diameter of growth inhibition zone at 100 ug/ml after 48-96 hr by agar cup diffusion method; settings: read-out: DIZ
Penicillium [23] = test: Antimicrobial activity against Penicillium wild strain assessed as diameter of growth inhibition zone at 25 ug/ml after 48-96 hr by agar cup diffusion method; settings: read-out: DIZ
Streptococcus pyogenes [24] = test: Antimicrobial activity against Streptococcus pyogenes MTCC 442 assessed as diameter of growth inhibition zone at 250 ug/ml after 18-24 hr by agar cup diffusion method; settings: read-out: DIZ
Escherichia coli [25] = test: Antimicrobial activity against Escherichia coli MTCC 443 assessed as diameter of growth inhibition zone at 25 ug/ml after 18-24 hr by agar cup diffusion method; settings: read-out: DIZ
Aspergillus clavatus [26] = test: Antimicrobial activity against Aspergillus clavatus MTCC 1323 assessed as diameter of growth inhibition zone at 250 ug/ml after 48-96 hr by agar cup diffusion method; settings: read-out: DIZ
Klebsiella pneumoniae [27] = test: Antimicrobial activity against Klebsiella pneumoniae MTCC 109 by agar cup diffusion method
Penicillium [28] = test: Antimicrobial activity against Penicillium wild strain assessed as diameter of growth inhibition zone at 100 ug/ml after 48-96 hr by agar cup diffusion method; settings: read-out: DIZ
Penicillium [29] = test: Antimicrobial activity against Penicillium wild strain assessed as diameter of growth inhibition zone at 250 ug/ml after 48-96 hr by agar cup diffusion method; settings: read-out: DIZ
Penicillium [30] = test: Antimicrobial activity against Penicillium wild strain by agar cup diffusion method
Candida albicans [31] = test: Antimicrobial activity against Candida albicans MTCC 227 by agar cup diffusion method
Escherichia coli [32] = test: Antimicrobial activity against Escherichia coli MTCC 443 by agar cup diffusion method
Trichophyton rubrum [33] = test: Antimicrobial activity against Trichophyton rubrum MTCC 296 by agar cup diffusion method
Streptococcus pyogenes [34] = test: Antimicrobial activity against Streptococcus pyogenes MTCC 442 by agar cup diffusion method
Klebsiella pneumoniae [35] = test: Antimicrobial activity against Klebsiella pneumoniae MTCC 109 assessed as diameter of growth inhibition zone at 250 ug/ml after 18-24 hr by agar cup diffusion method; settings: read-out: DIZ
Streptococcus pyogenes [36] = test: Antimicrobial activity against Streptococcus pyogenes MTCC 442 assessed as diameter of growth inhibition zone at 100 ug/ml after 18-24 hr by agar cup diffusion method; settings: read-out: DIZ
Escherichia coli [37] = test: Antimicrobial activity against Escherichia coli MTCC 443 assessed as diameter of growth inhibition zone at 100 ug/ml after 18-24 hr by agar cup diffusion method; settings: read-out: DIZ
Candida albicans [38] = test: Antimicrobial activity against Candida albicans MTCC 227 assessed as diameter of growth inhibition zone at 250 ug/ml after 48-96 hr by agar cup diffusion method; settings: read-out: DIZ
Staphylococcus aureus [39] = test: Antimicrobial activity against Staphylococcus aureus MTCC 96 assessed as diameter of growth inhibition zone at 250 ug/ml after 18-24 hr by agar cup diffusion method; settings: read-out: DIZ
Aspergillus clavatus [40] = test: Antimicrobial activity against Aspergillus clavatus MTCC 1323 by agar cup diffusion method
Streptococcus pyogenes [41] = test: Antimicrobial activity against Streptococcus pyogenes MTCC 442 assessed as diameter of growth inhibition zone at 50 ug/ml after 18-24 hr by agar cup diffusion method; settings: read-out: DIZ
Escherichia coli [42] = test: Antimicrobial activity against Escherichia coli MTCC 443 assessed as diameter of growth inhibition zone at 250 ug/ml after 18-24 hr by agar cup diffusion method; settings: read-out: DIZ
Staphylococcus aureus [43] = test: Antimicrobial activity against Staphylococcus aureus MTCC 96 assessed as diameter of growth inhibition zone at 100 ug/ml after 18-24 hr by agar cup diffusion method; settings: read-out: DIZ
Klebsiella pneumoniae [44] = test: Antimicrobial activity against Klebsiella pneumoniae MTCC 109 assessed as diameter of growth inhibition zone at 50 ug/ml after 18-24 hr by agar cup diffusion method; settings: read-out: DIZ
Trichophyton rubrum [45] = test: Antimicrobial activity against Trichophyton rubrum MTCC 296 assessed as diameter of growth inhibition zone at 25 ug/ml after 48-96 hr by agar cup diffusion method; settings: read-out: DIZ

## O=C(/C=C/c1ccccc1Cl)C1C(=O)NC(=S)NC1=O
Pseudomonas aeruginosa [1]
  zone of inhibition at 25 µg/mL: 10 mm
Trichophyton rubrum [2]
  zone of inhibition at 100 µg/mL: 19 mm
Candida albicans [3]
  zone of inhibition at 100 µg/mL: 22 mm
Penicillium [4]
  zone of inhibition at 50 µg/mL: 18 mm
Pseudomonas aeruginosa [5]
  zone of inhibition at 100 µg/mL: 17 mm
Klebsiella pneumoniae [6]
  zone of inhibition at 100 µg/mL: 15 mm
Aspergillus clavatus [7]
  zone of inhibition at 50 µg/mL: 19 mm
Staphylococcus aureus [8]
  MBC: 500 µg/mL (≈ 1620 µM)
  MIC: 250 µg/mL (≈ 810 µM)
Candida albicans [9]
  zone of inhibition at 25 µg/mL: 21 mm
Trichophyton rubrum [10]
  zone of inhibition at 50 µg/mL: 20 mm
Aspergillus clavatus [11]
  zone of inhibition at 25 µg/mL: 18 mm
Pseudomonas aeruginosa [12]
  zone of inhibition at 50 µg/mL: 14 mm
Trichophyton rubrum [13]
  zone of inhibition at 250 µg/mL: 21 mm
Pseudomonas aeruginosa [14]
  zone of inhibition at 250 µg/mL: 18 mm
Klebsiella pneumoniae [15]
  zone of inhibition at 25 µg/mL: 12 mm
Pseudomonas aeruginosa [16]
  MBC: 500 µg/mL (≈ 1620 µM)
  MIC: 250 µg/mL (≈ 810 µM)
Escherichia coli [17]
  zone of inhibition at 50 µg/mL: 14 mm
Staphylococcus aureus [18]
  zone of inhibition at 50 µg/mL: 14 mm
Staphylococcus aureus [19]
  zone of inhibition at 25 µg/mL: 10 mm
Streptococcus pyogenes [20]
  zone of inhibition at 25 µg/mL: 13 mm
Candida albicans [21]
  zone of inhibition at 50 µg/mL: 22 mm
Aspergillus clavatus [22]
  zone of inhibition at 100 µg/mL: 21 mm
Penicillium [23]
  zone of inhibition at 25 µg/mL: 18 mm
Streptococcus pyogenes [24]
  zone of inhibition at 250 µg/mL: 16 mm
Escherichia coli [25]
  zone of inhibition at 25 µg/mL: 13 mm
Aspergillus clavatus [26]
  zone of inhibition at 250 µg/mL: 22 mm
Klebsiella pneumoniae [27]
  MBC: 250 µg/mL (≈ 810 µM)
  MIC: 200 µg/mL (≈ 648 µM)
Penicillium [28]
  zone of inhibition at 100 µg/mL: 21 mm
Penicillium [29]
  zone of inhibition at 250 µg/mL: 22 mm
Penicillium [30]
  MFC: > 1000 µg/mL
  MIC: > 1000 µg/mL
Candida albicans [31]
  MFC: > 1000 µg/mL
  MIC: 250 µg/mL (≈ 810 µM)
Escherichia coli [32]
  MBC: 500 µg/mL (≈ 1620 µM)
  MIC: 250 µg/mL (≈ 810 µM)
Trichophyton rubrum [33]
  MFC: 500 µg/mL (≈ 1620 µM)
  MIC: 500 µg/mL (≈ 1620 µM)
Streptococcus pyogenes [34]
  MBC: 250 µg/mL (≈ 810 µM)
  MIC: 250 µg/mL (≈ 810 µM)
Klebsiella pneumoniae [35]
  zone of inhibition at 250 µg/mL: 18 mm
Streptococcus pyogenes [36]
  zone of inhibition at 100 µg/mL: 15 mm
Escherichia coli [37]
  zone of inhibition at 100 µg/mL: 15 mm
Candida albicans [38]
  zone of inhibition at 250 µg/mL: 23 mm
Staphylococcus aureus [39]
  zone of inhibition at 250 µg/mL: 18 mm
Aspergillus clavatus [40]
  MFC: > 1000 µg/mL
  MIC: > 1000 µg/mL
Streptococcus pyogenes [41]
  zone of inhibition at 50 µg/mL: 14 mm
Escherichia coli [42]
  zone of inhibition at 250 µg/mL: 16 mm
Staphylococcus aureus [43]
  zone of inhibition at 100 µg/mL: 17 mm
Klebsiella pneumoniae [44]
  zone of inhibition at 50 µg/mL: 13 mm
Trichophyton rubrum [45]
  zone of inhibition at 25 µg/mL: 19 mm

## O=C(O)c1cn(C2CC2)c2cc(N3CCNCC3)c(F)cc2c1=O [CIPROFLOXACIN]
Staphylococcus aureus [8]
  MIC: 100 µg/mL (≈ 302 µM)
Klebsiella pneumoniae [27]
  MIC: 25 µg/mL (≈ 75.4 µM)
Escherichia coli [32]
  MIC: 25 µg/mL (≈ 75.4 µM)
Streptococcus pyogenes [34]
  MIC: 50 µg/mL (≈ 151 µM)

## COC1=CC(=O)C[C@@H](C)[C@]12Oc1c(Cl)c(OC)cc(OC)c1C2=O [GRISEOFULVIN]
Penicillium [30]
  MIC: 100 µg/mL (≈ 283 µM)
Candida albicans [31]
  MIC: 100 µg/mL (≈ 283 µM)
Trichophyton rubrum [33]
  MIC: 500 µg/mL (≈ 1420 µM)
Aspergillus clavatus [40]
  MIC: 100 µg/mL (≈ 283 µM)
